Assay [1] has as its target T1, TmCHMO (Thermocrispum municipale, UniProt A0A1L1QK40).
T1 construct: recombinant from E. coli, gene from pBAD-His-Tag-SUMO-TmCHMO
T1 sequence (A0A1L1QK40 1-541): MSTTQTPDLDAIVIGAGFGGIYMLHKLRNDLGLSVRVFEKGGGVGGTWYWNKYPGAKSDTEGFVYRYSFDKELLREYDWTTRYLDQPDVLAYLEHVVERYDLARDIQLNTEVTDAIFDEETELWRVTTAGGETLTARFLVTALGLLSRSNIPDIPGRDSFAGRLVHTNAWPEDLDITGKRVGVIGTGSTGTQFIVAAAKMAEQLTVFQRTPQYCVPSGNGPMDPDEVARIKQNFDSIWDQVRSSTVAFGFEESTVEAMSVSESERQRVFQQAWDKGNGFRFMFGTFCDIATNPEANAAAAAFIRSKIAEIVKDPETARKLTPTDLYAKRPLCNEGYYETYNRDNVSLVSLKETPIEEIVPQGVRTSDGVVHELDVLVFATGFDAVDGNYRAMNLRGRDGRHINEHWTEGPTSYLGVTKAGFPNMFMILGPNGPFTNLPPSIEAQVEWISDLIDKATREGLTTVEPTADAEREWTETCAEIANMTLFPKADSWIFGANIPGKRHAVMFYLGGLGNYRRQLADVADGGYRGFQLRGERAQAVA
Put plainly: inhibition of thioanisole oxidation, NADPH depletion at […] nm. The class given is biochemical. The conditions noted are these: read-out: K I (estimated).

Assay [2] has as its target T1, TmCHMO. Described as above. The conditions noted are these: read-out: 50% reduction of activity. The class given is biochemical.
In assay [3] the target is T1, TmCHMO. Put plainly: ThermoFAD, release of FAD on unfolding. The note with it: 10 uM enzyme, +0.5 °C/min. It counts as binding.

`OC1CCCCC1` [cyclohexanol]: the Ki at TmCHMO [1] was below 2 mM. As to `O=C1CCCCCO1` [ε-caprolactone], at TmCHMO [2], the IC50 was 66 mM. As to `Cc1cc2nc3c(=O)[nH]c(=O)nc-3n(C[C@H](O)[C@H](O)[C@H](O)COP(=O)(O)OP(=O)(O)OC[C@H]3O[C@@H](n4cnc5c(N)ncnc54)[C@H](O)[C@@H]3O)c2cc1C` [FAD], the “ThermoFAD, release of FAD on unfolding” value on TmCHMO [3] is on record as “the release of the FAD from TmCHMO upon unfolding could be detected”.

(Values after publication PMC5624969, “Coupled reactions by coupled enzymes: alcohol to lactone cascade with alcohol dehydrogenase–cyclohexanone monooxygenase fusions” (Applied Microbiology and Biotechnology, 2017).)
